Data taken from publication PMC12880737 (Journal of medicinal chemistry, 2025).

Experiments:
[1] = target: his6-GAS41 YEATS (13-158) (Homo sapiens, UniProt O95619); assay: AlphaLISA competition assay with 21-biot probe
GAS41 YEATS domain [2] = target: T1, GAS41 YEATS domain (Homo sapiens, UniProt O95619); assay: Fluorescence polarization competition assay with H3K23crK27cr-FAM probe; assay type: binding
Target sequence in this assay (O95619 1-148): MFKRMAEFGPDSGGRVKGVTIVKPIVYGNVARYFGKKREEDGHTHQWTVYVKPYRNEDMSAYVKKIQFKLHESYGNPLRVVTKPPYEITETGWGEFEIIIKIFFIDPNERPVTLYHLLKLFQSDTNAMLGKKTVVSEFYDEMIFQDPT

[3] = target: NanoLuc-tagged BRD4-BD1 and Halo-tagged histone H3.3 (Homo sapiens, UniProt O60885); assay: BRD4-BD1 NanoBRET assay; assay type: cell-based; settings: Figure S3
H1299 cells = assay: Wound healing assay; assay type: cell-based; settings: H1299, 24 h
[4] = target: NanoLUC-GAS41 and Halo-H3.3 (Homo sapiens, UniProt O95619); assay: GAS41 NanoBRET assay in HEK293T cells; assay type: cell-based
Sequence of NanoLUC-GAS41 and Halo-H3.3 (O95619 whole entry): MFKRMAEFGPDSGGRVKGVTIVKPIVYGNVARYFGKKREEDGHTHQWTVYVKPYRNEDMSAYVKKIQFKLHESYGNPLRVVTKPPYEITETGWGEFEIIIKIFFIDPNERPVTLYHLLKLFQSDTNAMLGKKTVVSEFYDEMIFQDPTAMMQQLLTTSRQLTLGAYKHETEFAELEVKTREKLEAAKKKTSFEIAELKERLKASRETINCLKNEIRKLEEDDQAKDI

CDKN1A = CDKN1A gene expression by RT-qPCR in H1299 cells; assay type: cell-based; settings: 7 days
GAS41 YEATS domain [5] = target: T1, GAS41 YEATS domain; assay: 1H-15N HSQC NMR binding experiments; settings: 50 μM 15N GAS41 YEATS, 100 μM compound
Target sequence in this assay (O95619 18-190): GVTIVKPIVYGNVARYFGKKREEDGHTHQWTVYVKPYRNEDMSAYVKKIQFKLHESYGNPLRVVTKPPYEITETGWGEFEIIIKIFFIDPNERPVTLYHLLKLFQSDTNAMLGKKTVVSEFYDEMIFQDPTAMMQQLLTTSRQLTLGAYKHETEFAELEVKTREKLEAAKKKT

Sequence of his6-GAS41 YEATS (13-158) (O95619 13-158): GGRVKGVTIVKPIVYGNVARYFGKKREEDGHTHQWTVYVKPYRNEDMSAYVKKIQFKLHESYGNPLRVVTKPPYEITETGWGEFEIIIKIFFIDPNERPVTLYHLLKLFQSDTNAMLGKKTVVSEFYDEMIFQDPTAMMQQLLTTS

O=C(NCc1ccc(-c2cnc(C3CN(C(=O)c4ccc(NC(=O)[C@@H]5CCCN5)s4)C3)s2)cc1)C1CCCC1 [Compound 30, (S)-N-(5-(3-(5-(4-(cyclopentanecarboxamidomethyl)phenyl)thiazol-2-yl)azetidine-1-carbonyl)thiophen-2-yl)pyrrolidine-2-carboxamide]
IC50 [1]: 600 ± 80 nM | IC50 (GAS41 YEATS domain [2]): 1300 ± 400 nM

O=C(NCc1ccc(-c2cnc(C3CN(C(=O)c4ccc(NC(=O)[C@@H]5CCCN5)s4)C3)s2)cc1)c1ccccc1 [Compound 31, (S)-N-(5-(3-(5-(4-(benzamidomethyl)phenyl)thiazol-2-yl)azetidine-1-carbonyl)thiophen-2-yl)pyrrolidine-2-carboxamide]
IC50 [1]: 200 ± 80 nM | IC50 (GAS41 YEATS domain [2]): 1100 ± 10 nM

CC(=O)NCc1ccc(-c2cnc(C3CN(C(=O)c4ccc(NC(=O)[C@@H]5CCCN5)s4)C3)s2)c(Cl)c1 [Compound 35, (S)-N-(5-(3-(5-(4-(acetamidomethyl)-2-chlorophenyl)thiazol-2-yl)azetidine-1-carbonyl)thiophen-2-yl)pyrrolidine-2-carboxamide]
IC50 [1]: 1400 ± 330 nM | IC50 (GAS41 YEATS domain [2]): 3400 ± 130 nM

CCC(=O)NCc1ccc(-c2cnc(C3CN(C(=O)c4ccc(NC(=O)[C@@H]5CC(C)(C)CN5)s4)C3)s2)c2ccccc12 [Compound 39, (S)-4,4-dimethyl-N-(5-(3-(5-(4-(propionamidomethyl)naphthalen-1-yl)thiazol-2-yl)azetidine-1-carbonyl)thiophen-2-yl)pyrrolidine-2-carboxamide]
activity in BRD4-BD1 NanoBRET assay [3]: no activity | scratch healing (H1299 cells): slowed scratch healing

CCC(=O)NCc1ccc(-c2cnc(C3CN(C(=O)c4cnc(NC(=O)[C@@H]5CC(C)(C)CN5)s4)C3)s2)c2ccccc12 [Compound 40, (S)-4,4-dimethyl-N-(5-(3-(5-(4-(propionamidomethyl)naphthalen-1-yl)thiazol-2-yl)azetidine-1-carbonyl)thiazol-2-yl)pyrrolidine-2-carboxamide]
IC50 [4]: > 25 µM | levels of CDKN1A (CDKN1A): but not DLG-41nc strongly enhanced levels of CDKN1A | amide perturbations in 1H-15N HSQC NMR (GAS41 YEATS domain [5]): no perturbations | IC50 [1]: > 50000 nM | IC50 (GAS41 YEATS domain [2]): 118000 ± 7700 nM

Cc1sc2c(c1C)C(c1ccc(Cl)cc1)=N[C@@H](CC(=O)OC(C)(C)C)c1nnc(C)n1-2 [JQ1, reference compound]
activity in GAS41 BRET assay ([4]; Figure S3): no activity
